In paper PMC10176470, “Engaging a Non-catalytic Cysteine Residue Drives Potent and Selective Inhibition of Caspase-6” (Journal of the American Chemical Society, 2023):

Key:
Assay type in all cases: cell-based
[1] = target: proteins of HEK293T cells transiently overexpressing caspase-6 (Homo sapiens, UniProt P07195)
[2] = target: proteins of HEK293T cells transiently overexpressing caspase-6 (Homo sapiens, UniProt P27797); conditions: exp_ref Probe; protein CALR (P27797); analysis C6
[3] = target: proteins of HEK293T cells transiently overexpressing caspase-6 (Homo sapiens, UniProt P46379); conditions: exp_ref Probe; protein BAG6 (P46379); analysis C6
[4] = target: proteins of HEK293T cells transiently overexpressing caspase-6 (Homo sapiens, UniProt Q00610); conditions: exp_ref Probe; protein CLTC (Q00610); analysis C6
[5] = target: T1, proteins of HEK293T cells transiently overexpressing caspase-6 (Homo sapiens, UniProt P40926); conditions: protein MDH2 (P40926)
T1 sequence (P40926 25-338): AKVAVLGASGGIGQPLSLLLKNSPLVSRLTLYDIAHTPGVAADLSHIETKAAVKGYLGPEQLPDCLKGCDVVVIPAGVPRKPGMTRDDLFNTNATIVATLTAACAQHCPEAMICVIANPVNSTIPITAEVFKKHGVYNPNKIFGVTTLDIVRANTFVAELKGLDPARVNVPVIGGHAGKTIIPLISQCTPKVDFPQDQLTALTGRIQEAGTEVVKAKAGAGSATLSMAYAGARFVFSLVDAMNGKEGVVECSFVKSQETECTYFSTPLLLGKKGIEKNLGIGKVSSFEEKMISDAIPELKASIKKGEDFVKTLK

[6] = target: T2, proteins of HEK293T cells transiently overexpressing caspase-6 (Homo sapiens, UniProt P05165)
T2 sequence (P05165 53-728): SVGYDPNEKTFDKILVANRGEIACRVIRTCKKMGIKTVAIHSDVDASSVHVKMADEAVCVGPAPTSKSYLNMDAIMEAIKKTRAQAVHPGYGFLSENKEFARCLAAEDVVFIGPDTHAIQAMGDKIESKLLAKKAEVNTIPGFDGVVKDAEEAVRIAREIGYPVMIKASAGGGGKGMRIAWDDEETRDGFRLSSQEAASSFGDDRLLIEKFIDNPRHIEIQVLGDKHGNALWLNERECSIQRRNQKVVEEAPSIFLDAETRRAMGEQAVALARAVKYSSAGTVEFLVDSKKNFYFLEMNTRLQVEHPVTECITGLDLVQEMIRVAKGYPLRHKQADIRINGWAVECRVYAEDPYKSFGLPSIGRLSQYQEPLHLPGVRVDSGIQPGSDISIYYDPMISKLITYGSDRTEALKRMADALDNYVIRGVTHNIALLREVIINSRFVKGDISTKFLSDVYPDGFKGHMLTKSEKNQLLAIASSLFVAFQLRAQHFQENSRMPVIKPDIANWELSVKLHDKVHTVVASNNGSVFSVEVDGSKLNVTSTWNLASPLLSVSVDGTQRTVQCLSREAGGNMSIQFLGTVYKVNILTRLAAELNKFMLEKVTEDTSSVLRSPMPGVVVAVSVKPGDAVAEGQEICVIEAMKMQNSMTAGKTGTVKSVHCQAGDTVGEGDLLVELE

[7] = target: proteins of HEK293T cells transiently overexpressing caspase-6 (Homo sapiens, UniProt P53396); conditions: exp_ref Probe; protein ACLY (P53396); analysis C6
[8] = target: T3, proteins of HEK293T cells transiently overexpressing caspase-6 (Homo sapiens, UniProt P54136); conditions: exp_ref Probe; protein RARS (P54136); analysis C6
T3 sequence (P54136 1-660): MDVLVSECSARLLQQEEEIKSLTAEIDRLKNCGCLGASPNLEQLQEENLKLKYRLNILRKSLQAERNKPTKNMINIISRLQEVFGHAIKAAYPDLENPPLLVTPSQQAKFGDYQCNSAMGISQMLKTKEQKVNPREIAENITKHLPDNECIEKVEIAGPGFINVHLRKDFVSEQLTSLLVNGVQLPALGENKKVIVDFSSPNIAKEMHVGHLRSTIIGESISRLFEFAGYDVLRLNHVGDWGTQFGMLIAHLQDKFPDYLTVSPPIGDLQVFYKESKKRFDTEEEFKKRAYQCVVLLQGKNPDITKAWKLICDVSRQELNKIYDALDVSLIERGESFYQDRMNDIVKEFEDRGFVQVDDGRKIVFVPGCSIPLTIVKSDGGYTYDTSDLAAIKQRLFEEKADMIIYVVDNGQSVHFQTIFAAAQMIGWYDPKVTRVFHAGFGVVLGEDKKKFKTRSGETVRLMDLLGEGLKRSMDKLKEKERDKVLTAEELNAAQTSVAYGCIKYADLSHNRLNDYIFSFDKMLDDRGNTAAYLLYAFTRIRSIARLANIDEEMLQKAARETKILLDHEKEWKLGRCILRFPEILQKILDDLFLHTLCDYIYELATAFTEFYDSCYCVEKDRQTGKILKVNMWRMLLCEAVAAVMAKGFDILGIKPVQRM

[9] = target: proteins of HEK293T cells transiently overexpressing caspase-6 (Homo sapiens, UniProt P35232); conditions: Probe; protein PHB P35232
[10] = target: proteins of HEK293T cells transiently overexpressing caspase-6 (Homo sapiens, UniProt P13010); conditions: protein XRCC5 (P13010)
[11] = target: proteins of HEK293T cells transiently overexpressing caspase-6 (Homo sapiens, UniProt P06748); conditions: protein NPM1 (P06748)
proteins of HEK293T cells transiently overexpressing caspase-6 (Homo sapiens, UniProt P06748), sequence (P06748 whole entry): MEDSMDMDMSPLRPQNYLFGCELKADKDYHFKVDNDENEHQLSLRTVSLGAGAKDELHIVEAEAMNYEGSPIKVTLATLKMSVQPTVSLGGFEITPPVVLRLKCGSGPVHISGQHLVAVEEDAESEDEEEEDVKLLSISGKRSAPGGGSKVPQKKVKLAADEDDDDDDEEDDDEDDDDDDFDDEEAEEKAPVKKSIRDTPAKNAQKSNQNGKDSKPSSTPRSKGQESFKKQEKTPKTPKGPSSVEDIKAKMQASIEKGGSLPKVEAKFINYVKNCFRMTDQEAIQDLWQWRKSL

proteins of HEK293T cells transiently overexpressing caspase-6 (Homo sapiens, UniProt P07195), sequence (P07195 whole entry): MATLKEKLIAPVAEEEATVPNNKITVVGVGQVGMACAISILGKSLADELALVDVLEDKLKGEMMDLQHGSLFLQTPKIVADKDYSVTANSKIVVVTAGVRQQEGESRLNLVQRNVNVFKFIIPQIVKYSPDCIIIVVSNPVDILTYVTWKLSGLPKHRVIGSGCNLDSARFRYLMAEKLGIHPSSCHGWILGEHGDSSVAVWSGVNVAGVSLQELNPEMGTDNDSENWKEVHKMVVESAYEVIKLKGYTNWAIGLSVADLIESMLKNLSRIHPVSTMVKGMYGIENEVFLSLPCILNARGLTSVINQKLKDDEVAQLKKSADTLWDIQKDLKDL
proteins of HEK293T cells transiently overexpressing caspase-6 (Homo sapiens, UniProt P13010), sequence (P13010 whole entry): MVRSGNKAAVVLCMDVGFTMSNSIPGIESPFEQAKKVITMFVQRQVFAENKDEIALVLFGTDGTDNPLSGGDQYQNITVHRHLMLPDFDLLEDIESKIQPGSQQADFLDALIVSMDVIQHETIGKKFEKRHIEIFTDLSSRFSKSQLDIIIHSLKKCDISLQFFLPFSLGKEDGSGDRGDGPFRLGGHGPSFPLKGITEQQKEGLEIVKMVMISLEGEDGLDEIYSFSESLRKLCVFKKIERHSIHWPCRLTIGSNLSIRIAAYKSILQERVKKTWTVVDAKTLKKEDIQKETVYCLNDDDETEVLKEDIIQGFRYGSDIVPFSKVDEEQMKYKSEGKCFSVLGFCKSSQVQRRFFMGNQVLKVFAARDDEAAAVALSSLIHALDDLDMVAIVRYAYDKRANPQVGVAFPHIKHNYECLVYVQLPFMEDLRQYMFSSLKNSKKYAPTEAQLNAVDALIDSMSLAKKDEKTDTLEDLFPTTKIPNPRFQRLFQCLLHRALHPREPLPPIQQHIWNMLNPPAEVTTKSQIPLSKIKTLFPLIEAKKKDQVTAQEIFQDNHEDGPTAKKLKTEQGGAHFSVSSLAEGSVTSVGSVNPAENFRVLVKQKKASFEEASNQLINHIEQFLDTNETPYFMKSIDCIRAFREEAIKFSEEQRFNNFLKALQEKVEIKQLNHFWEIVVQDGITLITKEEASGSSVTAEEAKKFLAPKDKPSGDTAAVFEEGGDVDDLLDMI
proteins of HEK293T cells transiently overexpressing caspase-6 (Homo sapiens, UniProt P46379), sequence (P46379 whole entry): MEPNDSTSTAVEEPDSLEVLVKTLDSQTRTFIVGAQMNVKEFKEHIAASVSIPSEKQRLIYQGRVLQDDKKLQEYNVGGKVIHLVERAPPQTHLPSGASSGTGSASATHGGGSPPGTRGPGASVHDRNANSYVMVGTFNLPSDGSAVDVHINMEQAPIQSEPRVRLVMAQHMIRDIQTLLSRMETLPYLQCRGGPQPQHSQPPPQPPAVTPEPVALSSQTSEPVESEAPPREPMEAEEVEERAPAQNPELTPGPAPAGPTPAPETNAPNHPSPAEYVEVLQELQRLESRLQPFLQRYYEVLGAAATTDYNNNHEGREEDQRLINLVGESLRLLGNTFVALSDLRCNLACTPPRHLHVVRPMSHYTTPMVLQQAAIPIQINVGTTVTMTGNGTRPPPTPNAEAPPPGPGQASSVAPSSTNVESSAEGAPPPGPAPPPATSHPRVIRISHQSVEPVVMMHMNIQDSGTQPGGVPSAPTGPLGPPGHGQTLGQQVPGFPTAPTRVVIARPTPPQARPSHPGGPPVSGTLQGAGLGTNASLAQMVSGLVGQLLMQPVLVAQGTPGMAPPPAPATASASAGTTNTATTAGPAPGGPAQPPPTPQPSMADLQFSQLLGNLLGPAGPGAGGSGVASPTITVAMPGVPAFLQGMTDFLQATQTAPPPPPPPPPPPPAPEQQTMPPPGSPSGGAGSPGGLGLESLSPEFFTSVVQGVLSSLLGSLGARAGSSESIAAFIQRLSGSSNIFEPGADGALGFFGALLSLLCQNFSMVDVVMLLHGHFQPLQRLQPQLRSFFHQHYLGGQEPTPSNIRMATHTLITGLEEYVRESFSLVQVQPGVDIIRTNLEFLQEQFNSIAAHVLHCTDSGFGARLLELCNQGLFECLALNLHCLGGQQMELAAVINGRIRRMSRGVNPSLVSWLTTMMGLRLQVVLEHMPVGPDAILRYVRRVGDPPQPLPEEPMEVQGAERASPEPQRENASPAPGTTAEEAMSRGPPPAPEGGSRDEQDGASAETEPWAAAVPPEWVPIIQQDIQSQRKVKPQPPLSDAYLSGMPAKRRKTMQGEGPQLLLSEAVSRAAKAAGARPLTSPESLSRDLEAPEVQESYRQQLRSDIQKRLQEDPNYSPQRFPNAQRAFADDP
proteins of HEK293T cells transiently overexpressing caspase-6 (Homo sapiens, UniProt P53396), sequence (P53396 whole entry): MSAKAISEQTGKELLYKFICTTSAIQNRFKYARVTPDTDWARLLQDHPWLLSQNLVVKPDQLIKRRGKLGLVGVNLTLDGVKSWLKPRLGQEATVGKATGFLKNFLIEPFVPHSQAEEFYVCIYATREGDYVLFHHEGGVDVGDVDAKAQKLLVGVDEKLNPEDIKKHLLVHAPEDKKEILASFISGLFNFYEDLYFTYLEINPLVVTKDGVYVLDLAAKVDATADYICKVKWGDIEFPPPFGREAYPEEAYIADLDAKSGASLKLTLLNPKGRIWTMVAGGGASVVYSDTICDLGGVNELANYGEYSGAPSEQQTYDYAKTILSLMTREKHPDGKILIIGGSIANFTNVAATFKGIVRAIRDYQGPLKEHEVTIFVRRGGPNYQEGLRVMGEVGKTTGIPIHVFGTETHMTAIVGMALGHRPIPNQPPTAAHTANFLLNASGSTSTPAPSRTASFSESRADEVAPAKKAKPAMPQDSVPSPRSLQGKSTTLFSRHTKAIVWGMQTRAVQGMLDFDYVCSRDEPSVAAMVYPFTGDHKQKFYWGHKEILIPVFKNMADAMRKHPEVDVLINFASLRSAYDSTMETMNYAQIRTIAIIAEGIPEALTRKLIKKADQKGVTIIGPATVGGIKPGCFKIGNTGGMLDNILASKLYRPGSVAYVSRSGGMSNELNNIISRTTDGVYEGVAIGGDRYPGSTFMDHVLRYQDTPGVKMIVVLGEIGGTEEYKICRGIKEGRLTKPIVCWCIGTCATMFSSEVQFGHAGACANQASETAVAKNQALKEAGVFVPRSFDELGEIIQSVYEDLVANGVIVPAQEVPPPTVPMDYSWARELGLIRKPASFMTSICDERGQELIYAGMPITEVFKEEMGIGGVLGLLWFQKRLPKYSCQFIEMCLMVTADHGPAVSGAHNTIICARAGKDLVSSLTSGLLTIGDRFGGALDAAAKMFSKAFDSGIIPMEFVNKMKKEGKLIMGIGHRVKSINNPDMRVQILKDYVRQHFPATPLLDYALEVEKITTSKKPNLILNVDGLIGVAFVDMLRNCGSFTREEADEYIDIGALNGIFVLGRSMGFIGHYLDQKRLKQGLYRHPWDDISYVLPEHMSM
proteins of HEK293T cells transiently overexpressing caspase-6 (Homo sapiens, UniProt P35232), sequence (P35232 whole entry): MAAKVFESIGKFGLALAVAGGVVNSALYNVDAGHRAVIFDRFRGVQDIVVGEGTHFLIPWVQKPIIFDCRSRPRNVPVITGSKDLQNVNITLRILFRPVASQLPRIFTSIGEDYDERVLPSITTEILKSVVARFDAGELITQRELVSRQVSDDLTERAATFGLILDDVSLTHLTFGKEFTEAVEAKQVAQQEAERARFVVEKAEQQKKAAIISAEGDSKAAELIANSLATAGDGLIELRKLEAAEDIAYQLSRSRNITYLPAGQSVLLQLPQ
proteins of HEK293T cells transiently overexpressing caspase-6 (Homo sapiens, UniProt P27797), sequence (P27797 18-417): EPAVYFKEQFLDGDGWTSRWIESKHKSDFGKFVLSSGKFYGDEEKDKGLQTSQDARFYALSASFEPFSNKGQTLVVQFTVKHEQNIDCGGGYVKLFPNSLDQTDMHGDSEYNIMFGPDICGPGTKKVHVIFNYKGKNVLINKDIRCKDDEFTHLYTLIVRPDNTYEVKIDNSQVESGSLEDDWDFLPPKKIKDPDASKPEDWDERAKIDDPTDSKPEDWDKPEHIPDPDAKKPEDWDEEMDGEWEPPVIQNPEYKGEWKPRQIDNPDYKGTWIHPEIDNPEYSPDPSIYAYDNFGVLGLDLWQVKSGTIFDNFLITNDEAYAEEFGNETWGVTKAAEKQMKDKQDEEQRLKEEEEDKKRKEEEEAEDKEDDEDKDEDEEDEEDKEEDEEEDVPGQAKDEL

Question: Which enrich.exp.med ([1]; Probe, protein LDHB P07195) does the source give for `C#CCOc1ccc([C@@H]2C[C@@H](C(=O)Nc3ccc(OC(F)(F)F)cc3)CN(S(=O)(=O)C=C)C2)cc1` (relative stereo) [13-t] here?
Answer: -0.537

Question: And the enrich.exp.med.lin ([1]; protein LDHB (P07195))?
Answer: 0.6892

Question: And the enrich.exp.med.log2 ([1]; protein LDHB (P07195))?
Answer: -0.537

Question: What about the enrich.exp.med [2] of the same compound?
Answer: 0.5687

Question: What about the enrich.exp.med [3] of the same compound?
Answer: 0.9575

Question: And the enrich.exp.med [4]?
Answer: -0.1743

Question: And the enrich.exp.med ([5]; exp_ref Probe, analysis C6)?
Answer: 0.3462

Question: And the enrich.exp.med.lin [5]?
Answer: 1.2712

Question: And the enrich.exp.med.log2 [5]?
Answer: 0.3462

Question: What about the enrich.exp.med ([6]; Probe, protein PCCA P05165) of the same compound?
Answer: -2.194

Question: And the enrich.exp.med.lin ([6]; protein PCCA (P05165))?
Answer: 0.2185

Question: And the enrich.exp.med.log2 ([6]; protein PCCA (P05165))?
Answer: -2.194

Question: What about the enrich.exp.med [7] of the same compound?
Answer: -0.1134

Question: What about the enrich.exp.med [8] of the same compound?
Answer: 0.9191

Question: And the enrich.exp.med [9]?
Answer: -1.532

Question: And the enrich.exp.med ([10]; exp_ref Probe, analysis C6)?
Answer: 0.8127

Question: What about the enrich.exp.med.lin [10] of the same compound?
Answer: 1.757

Question: And the enrich.exp.med.log2 [10]?
Answer: 0.8127

Question: What about the enrich.exp.med ([11]; exp_ref Probe, analysis C6) of the same compound?
Answer: -0.3931

Question: And the enrich.exp.med.lin [11]?
Answer: 0.7615

Question: And the enrich.exp.med.log2 [11]?
Answer: -0.3931
